Experimental data reported in patent publication US20250353873A1, “COMPOUNDS AND METHODS FOR MODULATING APOE EXPRESSION” (Ionis Pharmaceuticals, Inc., priority 2024, published 2025).
pIC50: −log10 of the molar value. Strand notation (5' to 3'): a small letter for the sugar, then the base; units joined by * are phosphorothioate-linked, units joined directly phosphodiester-linked; [ ] holds rarer units or linkages, { } end groups; capitals alone tell only the bases. [ms] = mesyl phosphoramidate linkage; e = 2'-O-(2-methoxyethyl) (MOE); k = constrained ethyl (cEt); [5mC] = 5-methylcytosine; d = 2'-deoxy (DNA)

Columns and labels:
[1] = tested on: human APOE RNA; experiment: Dose-dependent inhibition of human APOE RNA in HepG2 cells, electroporation, 50,000 cells per well, RT-PCR normalized to GAPDH (Example 4, Tables 8-10); type: cell-based; details: for APOE RNA (% UTC) 1,280 nM: 24-hour treatment, 1,280 nM; for APOE RNA (% UTC) 3,200 nM: 24-hour treatment, 3,200 nM; for APOE RNA (% UTC) 8,000 nM: 24-hour treatment, 8,000 nM; for APOE RNA (% UTC) 20,000 nM: 24-hour treatment, 20,000 nM
In short: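 Readout is percent APOE RNA versus untreated controls, measured by RT-PCR (primer probe set RTS3073) and normalized to human GAPDH. Modified oligonucleotides were delivered by electroporation at varying doses into HepG2 cells plated at 50,000 per well.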

[2] = tested on: human APOE RNA; experiment: Activity in APOE C57BL/6NTac-Apoeem7250 knock-in mice, single ICV bolus, 8 weeks (Example 11); type: in vivo; details: single ICV bolus 300 μg, 8 weeks post treatment, normalized to mouse Ppia
In short: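 Cortical and spinal cord human APOE RNA quantified by RT-qPCR 8 weeks after a single 300 μg ICV dose in knock-in mice, Ppia-normalized. Values are percent of levels in PBS-treated animals.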

[3] = tested on: human APOE RNA; experiment: Activity in APOE C57BL/6NTac-Apoeem7250 knock-in mice, single ICV bolus, 4 weeks (Example 10); type: in vivo; details: single ICV bolus 300 μg, 4 weeks post treatment, normalized to mouse Ppia
In short: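 Human APOE RNA, quantified by real-time RT-PCR with RTS3073 and normalized to mouse Ppia, was read in cortical brain and spinal cord 4 weeks post dosing. Dosing was a single ICV bolus of 300 μg per knock-in mouse; values are % of PBS-treated animals.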

[4] = tested on: human APOE RNA; experiment: Dose-dependent inhibition of human APOE RNA in differentiated SH-SY5Y cells, free uptake, 5 days (Example 5); type: cell-based; details: 5 days (Table 14)
Procedure: Modified oligonucleotides selected from the examples above were tested at various doses in differentiated SH-SY5Y cells. The modified oligonucleotides were tested in a series of experiments that had the same culture conditions.
Differentiated SH-SY5Y cells plated at a density of 10,000 cells per well were treated by free uptake with various concentrations of modified oligonucleotide as specified in the tables below. […] APOE RNA levels were measured using the human primer probe set RTS3073 (described herein above). APOE RNA levels were normalized to human PPIA. Human PPIA was amplified using human primer probe set mk_cycloA_2nd (described herein above). Results are presented as percent APOE RNA, relative to the amount of APOE RNA in untreated control cells (% UTC). The half maximal inhibitory concentration (IC50) of each modified oligonucleotide was calculated in GraphPad Prism 10 (GraphPad Software, San Diego, CA) and is also presented in the tables below.

[5] = tested on: human APOE RNA; experiment: Activity in APOE C57BL/6NTac-Apoeem7250 knock-in mice, single ICV bolus, 20 weeks (Example 13); type: in vivo; details: single ICV bolus 300 μg, 20 weeks post treatment, normalized to mouse Ppia
In short: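 Cortical and spinal cord RNA was assayed by real-time RT-PCR for human APOE, normalized to mouse Ppia and reported as percent of PBS controls. Tissue was taken twenty weeks after one 300 μg intracerebroventricular bolus in APOE knock-in mice, 4 per group.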

[6] = HepG2 cells, electroporation, 24-hour treatment, 5 nM, Table 8
[7] = HepG2 cells, electroporation, 24-hour treatment, 13 nM, Table 8
[8] = HepG2 cells, electroporation, 24-hour treatment, 33 nM, Table 8
[9] = HepG2 cells, electroporation, 24-hour treatment, 82 nM, Table 8
[10] = HepG2 cells, electroporation, 24-hour treatment, 205 nM, Table 8
[11] = HepG2 cells, electroporation, 24-hour treatment, 512 nM, Table 8
[12] = HepG2 cells, electroporation, Table 8
[13] = reduction of human APOE RNA, HepG2 cells, electroporation, 24-hour treatment, Table 8

| Substance | APOE RNA (% UTC) 5 nM [1, 6] | APOE RNA (% UTC) 13 nM [1, 7] | APOE RNA (% UTC) 33 nM [1, 8] | APOE RNA (% control) Cortex [2] | APOE RNA (% control) Spinal Cord [2] | APOE RNA (% control) Cortex [3] | APOE RNA (% control) Spinal Cord [3] | APOE RNA (% UTC) ([4]; 5 nM) | APOE RNA (% UTC) ([4]; 13 nM) | APOE RNA (% UTC) ([4]; 33 nM) | APOE RNA (% UTC) ([4]; 82 nM) | APOE RNA (% UTC) ([4]; 205 nM) | APOE RNA (% UTC) ([4]; 512 nM) | APOE RNA (% UTC) ([4]; 1,280 nM) | APOE RNA (% UTC) ([4]; 3,200 nM) | APOE RNA (% UTC) ([4]; 8,000 nM) | APOE RNA (% UTC) ([4]; 20,000 nM) | pIC50 [4] | APOE RNA (% control) Cortex [5] | APOE RNA (% control) Spinal Cord [5] | further results |
| --- | --- | --- | --- | --- | --- | --- | --- | --- | --- | --- | --- | --- | --- | --- | --- | --- | --- | --- | --- | --- | --- |
| 1785617: modified oligonucleotide complementary to human APOE RNA (k[5mC]*dT[ms]dT[ms]kG*dG[ms]kT*dG[ms]dA[ms]dA[ms]dT[ms]d[5mC]*dT*dT*dT*dA*dT*kT*kA*dA[ms]kA; antisense) [compound 1785617] | 91 % UTC | 104 % UTC | 93 % UTC | 30 % control | 213 % control | 39 % control | 38 % control | 118 % UTC | 116 % UTC | 84 % UTC | 71 % UTC | 59 % UTC | 56 % UTC | 29 % UTC | 21 % UTC | 22 % UTC | 10 % UTC | 6.28 | 61 % control | 38 % control | APOE RNA (% UTC) 82 nM [1, 9]: 83 % UTC; APOE RNA (% UTC) 205 nM [1, 10]: 93 % UTC; APOE RNA (% UTC) 512 nM [1, 11]: 50 % UTC; APOE RNA (% UTC) 1,280 nM [1, 12]: 47 % UTC; APOE RNA (% UTC) 3,200 nM [1, 12]: 18 % UTC; APOE RNA (% UTC) 8,000 nM [1, 12]: 27 % UTC; APOE RNA (% UTC) 20,000 nM [1, 12]: 11 % UTC; pIC50 [1, 13]: 6.02 |
| 1785598: modified oligonucleotide complementary to human APOE RNA (k[5mC]*kT*kT*dG[ms]dG[ms]dT[ms]dG[ms]dA[ms]dA[ms]dT*d[5mC]*dT*dT*dT*dA*dT[ms]kT*kA*dA[ms]kA; antisense) [compound 1785598] | 112 % UTC | 109 % UTC | 110 % UTC | 23 % control | 16 % control | 29 % control | 40 % control | 72 % UTC | 59 % UTC | 90 % UTC | 57 % UTC | 59 % UTC | 39 % UTC | 23 % UTC | 23 % UTC | 9 % UTC | 11 % UTC | 6.74 | 72 % control | 30 % control | APOE RNA (% UTC) 82 nM [1, 9]: 95 % UTC; APOE RNA (% UTC) 205 nM [1, 10]: 70 % UTC; APOE RNA (% UTC) 512 nM [1, 11]: 73 % UTC; APOE RNA (% UTC) 1,280 nM [1, 12]: 33 % UTC; APOE RNA (% UTC) 3,200 nM [1, 12]: 21 % UTC; APOE RNA (% UTC) 8,000 nM [1, 12]: 8 % UTC; APOE RNA (% UTC) 20,000 nM [1, 12]: 9 % UTC; pIC50 [1, 13]: 6.08 |
| 1778111: modified oligonucleotide complementary to human APOE RNA (eA*e[5mC]eTeTeG*kG*dT*dG[ms]dA[ms]dA*dT*d[5mC]*dT*dT*dT*dA[ms]eTeT*eA*eA; antisense) [compound 1778111] | 75 % UTC | 96 % UTC | 73 % UTC | 41 % control | 17 % control | 34 % control | 53 % control | 67 % UTC | 68 % UTC | 41 % UTC | 41 % UTC | 32 % UTC | 62 % UTC | 59 % UTC | 43 % UTC | 25 % UTC | 17 % UTC | 6.96 | 59 % control | 25 % control | APOE RNA (% UTC) 82 nM [1, 9]: 61 % UTC; APOE RNA (% UTC) 205 nM [1, 10]: 53 % UTC; APOE RNA (% UTC) 512 nM [1, 11]: 44 % UTC; APOE RNA (% UTC) 1,280 nM [1, 12]: 27 % UTC; APOE RNA (% UTC) 3,200 nM [1, 12]: 17 % UTC; APOE RNA (% UTC) 8,000 nM [1, 12]: 12 % UTC; APOE RNA (% UTC) 20,000 nM [1, 12]: 9 % UTC; pIC50 [1, 13]: 6.62 |
| 1757575 (eA*e[5mC]eTeT*kG*kG*dT*dG[ms]dA[ms]dA[ms]dT*d[5mC]*dT*dT*dT*dA[ms]kT*eT*eA*eA; antisense) [Compound 1757575] | – | – | – | 35 % control | 32 % control | 38 % control | 27 % control | 44 % UTC | 56 % UTC | 39 % UTC | 50 % UTC | 34 % UTC | 30 % UTC | 26 % UTC | 23 % UTC | 12 % UTC | 11 % UTC | 8.00 | 39 % control | 88 % control | APOE RNA (% UTC) ([1]; 5 nM, HepG2, electroporation, 16-hour treatment): 84 % UTC; APOE RNA (% UTC) ([1]; 13 nM, HepG2, electroporation, 16-hour treatment): 80 % UTC; APOE RNA (% UTC) ([1]; 33 nM, HepG2, electroporation, 16-hour treatment): 87 % UTC; APOE RNA (% UTC) ([1]; 82 nM, HepG2, electroporation, 16-hour treatment): 78 % UTC; APOE RNA (% UTC) ([1]; 205 nM, HepG2, electroporation, 16-hour treatment): 81 % UTC; APOE RNA (% UTC) ([1]; 512 nM, HepG2, electroporation, 16-hour treatment): 51 % UTC; APOE RNA (% UTC) ([1]; 1,280 nM, HepG2, electroporation, 16-hour treatment): 44 % UTC; APOE RNA (% UTC) ([1]; 3,200 nM, HepG2, electroporation, 16-hour treatment): 37 % UTC; APOE RNA (% UTC) ([1]; 8,000 nM, HepG2, electroporation, 16-hour treatment): 25 % UTC; APOE RNA (% UTC) ([1]; 20,000 nM, HepG2, electroporation, 16-hour treatment): 15 % UTC; pIC50 ([1]; HepG2, electroporation, 16-hour treatment): 6.03 |
